Measurements as given in patent publication US12478602B2, “Method for treating a disorder” (priority 2023, dated 2025).

Assays:
[1] = system: pediatric patients having autism spectrum disorder; details: human, in vivo
[2] = system: mice having autism spectrum disorder; assay: Sociality experiment (three-chamber) in mouse model of autism spectrum disorder; assay type: in vivo; details: 500 mg/kg orally once a day for 2 weeks from age 3 weeks
Source text: (§1) Pregnant C57BL/6 mice were subcutaneously injected with valproic acid (VPA) at the time when the gestation period reached 12 days. Male mice were selected from the mice that were born from the pregnant mice that were subcutaneously injected with VPA, and these were used as animals for a mouse model of autism spectrum disorder.
(§2) Since 3-week-old mice are at the critical stage, 3-week-old normal mice and 3-week-old mice having autism spectrum disorder were subjected to a sociality experiment, a social cognition experiment, and an anxiety experiment to identify the underlying features. 500 mg/kg of L-serine (hereinafter, referred to as AST-001) was orally administered for 2 weeks to mice having autism spectrum disorder, in which the underlying features had been confirmed. The mice having autism spectrum disorder, to which AST-001 had been orally administered for 2 weeks, were again subjected to a sociality experiment, a social cognition experiment, and an anxiety experiment.
A behavioral experiment, which checks whether or not an experimental mouse moves in the direction of a social object in a case where a social object (a non-familiar mouse) and a non-social object (an empty cage) are placed in both side rooms of a three-chamber having three connected rooms, was carried out (see FIG. 1A). […]

[3] = system: pediatric patients having autism spectrum disorder; assay: Clinical trial of 52-week continuous administration, safety
[4] = system: dopamine neurons in the midbrain VTA region; assay: Patch clamp of spontaneous action potential (dopamine secretion normalization); assay type: in vivo, mouse; details: 250 mg/kg to 500 mg/kg
Procedure: A mouse model of autism spectrum disorder was created with the method described in Example 1.1. The 3-week-old male mice having autism spectrum disorder were divided into a group (n=6) orally injected with 250 mg/kg of AST-001 for 2 weeks and a group (n=6) orally injected with 500 mg/kg of AST-001 for 2 weeks, and were orally administered with AST-001. The 3-week-old male normal mouse group and the autism spectrum disorder mouse group (n=6) were orally administered with water once a day for 2 weeks and then used as a control group (n=6) in the behavioral experiment. The spontaneous action potential of dopamine neurons in the midbrain VTA region of the 5-week-old normal mice and the 5-week-old mice having autism spectrum disorder was checked with a patch clamp. It turned out that mice having autism spectrum disorder show a reduced firing rate of the spontaneous action potential as compared with the normal mice (see FIG. 3A). As a result, dopamine secretion has been reduced in a mouse having autism spectrum disorder, and it can be seen that the reduced dopamine secretion has caused behavioral abnormalities related to the dopamine pathway, such as attention, reward, and cognition.

[5] = system: cortical layer 5 pyramidal neurons; assay: Synaptic pruning: dendritic spine density; assay type: in vivo, mouse; details: 400 mg/kg orally for 2 weeks
Procedure: A mouse model of autism spectrum disorder was created with the method described in Example 1.1. It is known that in autism spectrum disorder, the number of dendrites increases more than necessary due to troubles in synaptic pruning at the critical stage. Therefore, an experiment, which checks whether or not the number of dendrites can be normalized by AST-001 administration, was carried out. After oral administration of 400 mg/kg of AST-001 for 2 weeks to 3-week-old male autism spectrum disorder mice (n=8), it was checked whether or not the spine density of the synaptic dendrites was similar to that of the control group male normal mice (n=3). […] As a result, it was confirmed that oral administration of AST-001 normalizes synaptic pruning at the critical stage in autism spectrum disorder.

[6] = system: mice having autism spectrum disorder; assay: Individual recognition (novel object recognition, NOR) experiment; assay type: in vivo, mouse; details: 180, 300, 480 or 600 mg/kg/day orally for 21 days; with increasing dosage
Procedure: Mice having autism spectrum disorder were created by the same method as in Example 1.1. The 3-week-old male mice having autism spectrum disorder were orally injected with 180, 300, 480, or 600 mg/kg/day of L-serine for 21 days and then subjected to an individual recognition test. Eight mice were used for each experimental group. Mice tend to be more interested in a novel object than a familiar object. Therefore, a novel object recognition (NOR) experiment, which is an experiment for checking whether or not mice recognize a novel object, was carried out.

[7] = system: mice having autism spectrum disorder; assay: Anxiety experiment (elevated plus maze) in mouse model of autism spectrum disorder; assay type: in vivo; details: 500 mg/kg orally once a day for 2 weeks; vs untreated autism spectrum disorder mouse
Source text: as §1, §2
For 2 weeks from the age of 3 weeks, the normal group and the autism spectrum disorder group were subjected to oral administration with water every day once a day, and in the drug group, mice having autism spectrum disorder were orally administered with 500 mg/kg of AST-001 (dissolved in water) once a day. […]

Q: `N[C@@H](CO)C(=O)O` [AST-001, L-serine] was tested. Which “Adverse event [TEAE], Events” value [1] did it give?
A: 41

Q: What about the “interaction time with the social object vs interaction time with the empty cage” value [2] of the same compound?
A: significantly higher

Q: What about the “preference index for the social object” value [2] of the same compound?
A: high

Q: And the “serious adverse events and deaths evaluated to be related” value ([3]; 52-week continuous administration)?
A: no serious adverse events and no deaths

Q: What about the “COVID-19 infection adverse events” value ([3]; high dose group) of the same compound?
A: 6 events

Q: What about the “COVID-19 infection adverse events” value ([3]; low dose group) of the same compound?
A: 5 events

Q: And the dopamine secretion [4]?
A: increases

Q: And the “number of dendrites (spine density of the synaptic dendrites)” value [5]?
A: significantly reduced and similar to that of the control group

Q: What about the “discrimination index (DI)” value [6] of the same compound?
A: increased

Q: And the “time staying in the closed-arm space of the elevated plus maze” value [7]?
A: short time

Q: And the “time staying in the open-arm space of the elevated plus maze” value [7]?
A: remarkably long time
